Marks after values point to notes of the source that are not given here.
Key:
rhesus monkeys = assay: Rhesus monkey conflict test; format: in vivo; conditions: cumulative dosing
From the text: Conflict protocol: The conflict procedure is a well established operant conditioning approach to evaluate anxiolytic-like effects of test compounds. In this procedure, positively-reinforced behavior is suppressed by response-contingent administration of a noxious stimulus (i.e., mild electric shock). Compounds with anxiolytic effects in humans (e.g., benzodiazepines) characteristically increase rates of responding that are suppressed by shock and are referred to as anti-conflict or anxiolytic-like effects. […] In addition to anxiolytic-like effects, conflict procedures also provide an assessment of the ability of the animal to perform operant lever pressing. This is typically assessed by including lever pressing in the absence of the noxious stimulus. Most anxiolytic compounds will decrease rates of responding in the absence of shock at doses higher than those that induce anxiolytic-like effects. The effects contributing to anxiolytic-induced decreases in non-suppressed responding are not well understood, but likely consist of a combination of motor co-ordination deficits and sedative effects.
Adult rhesus monkeys were used in these studies (n=1-4). Weights of the monkeys ranged from 6.2 to 10.5 kg. The animals had been previously trained using the conflict procedure. Animals were maintained at 85-95% of their free-feeding weights by manipulation of food intake. Monkeys were individually housed with water available ad libitum, and maintained on a 12 hour lights-on/12 hour lights-off cycle (lights on at 0600 a.m.). Monkeys received Harlan Teklad diet (15% Primate Diet) as well as supplemental feeding (fruits, vegetables, and commercially available primate treats) daily. They were also given toys and video enrichment when not in an experimental session. Each animal was prepared prior to the study with a chronic indwelling venous catheter for drug delivery. A polyvinyl chloride catheter was implanted in a jugular, femoral or brachial vein under isoflurane anesthesia and aseptic conditions. The proximal end of the catheter terminated above the right atrium, and the distal end was passed subcutaneously to exit in the midscapular region. Experimental sessions began 5-7 days following surgery. Catheters had been implanted approximately 3 months to 1 year prior to the initiation of the study. During experimental sessions, monkeys were seated in primate chairs that were placed in ventilated sound-attenuating chambers. A single response lever was mounted on the wall of the chamber in front of the monkey. Each press of a lever produced an audible click and was recorded as a response via electromechanical equipment, a computer interface, and PC with specialized software. Food pellets could be delivered into a tray located next to the lever. Mild electric shock could be delivered to the bottom of the feet via brass electrodes that were fitted to shoes. Red and green lights mounted above the levers could be illuminated to serve as visual stimuli.
Monkeys were trained under a multiple schedule of food reinforcement adapted from Spealman (1979). A daily session consisted of 4 cycles, each preceded by a 10-min time out period in which all lights in the chamber were off and responding had no programmed consequences. Each cycle consisted of two components, component 1 and 2. Component 1 was signaled by red stimulus lights and consisted of an 18-response schedule (FR18) of food pellet delivery (i.e., the animal receives a food pellet following 18 responses). Component 2, signaled by green stimulus lights, followed immediately and consisted of the FR18 schedule of food delivery combined with a FR20 schedule of foot shock delivery (1.5-3.0 mA, adjusted for each monkey based on individual performance, 0.25 sec duration). Delivery of a food pellet (FR18 schedule) was followed by a 10 sec time out in which responses had no programmed consequences. […]

Wistar rats = assay: Vogel conflict test; format: in vivo; conditions: rat, 60 min before test, 3 minute test
Protocol: Vogel Conflict Test Protocol: The Vogel conflict test is an animal model of anxiety described by Vogel et al. (1971). In this test, water deprived animals are placed in a cage with free access to a drinking bottle. Whenever the animal drinks, an electric shock is administered. Animals punished during drinking rapidly cease to drink. Anxiolytic drugs decrease the effect of punishment and increase the number of shocks accepted by the rats in this conflict situation. Male Wistar rats were used in these studies. Rats were deprived of water for approximately 48 hours and then placed individually into a transparent Plexiglas enclosure with a floor consisting of stainless steel bars spaced 1 cm apart. The back wall of the enclosure was made of opaque Plexiglas thereby concealing the observer from the experimental animal. In the center of the opposite wall, 5 cm above the floor, a metal water spout protruded into the cage and was connected to one pole of a shock generator. The other pole of the shock generator was connected to the metal grid floor. The rat is left to explore until it finds the water spout. Then, every time it drinks, it receives an electric shock (1.7 mA, 1 sec duration) 2 seconds after it starts drinking The number of punished drinks is counted during a 3 minute test. Ten rats are studied per treatment group. Clobazam (64 mg/kg) was used as the positive control. Compounds of the present invention, vehicle (45% hydroxypropyl beta-cyclodextrin) and clobazam were administered orally to all groups (n=10 […] per group) 60 minutes prior to behavioral testing. All data were analyzed using unpaired Student's t-tests. An effect was considered significance if p<0.05.

| Compound | Non-Suppressed Response Rates Mean ± S.E.M. (rhesus monkeys; 0.1 mg/kg IV) | Suppressed Response Rates Mean ± S.E.M. (rhesus monkeys; 0.1 mg/kg IV) | Non-Suppressed Response Rates Mean ± S.E.M. (rhesus monkeys; 0.3 mg/kg IV) | Suppressed Response Rates Mean ± S.E.M. (rhesus monkeys; 0.3 mg/kg IV) | Non-Suppressed Response Rates Mean ± S.E.M. (rhesus monkeys; 1 mg/kg IV) | Suppressed Response Rates Mean ± S.E.M. (rhesus monkeys; 1 mg/kg IV) | Non-Suppressed Response Rates Mean ± S.E.M. (rhesus monkeys; 3 mg/kg IV) | Suppressed Response Rates Mean ± S.E.M. (rhesus monkeys; 3 mg/kg IV) | Number of Shocks Mean ± S.E.M. (Wistar rats; 3 mg/kg PO) | Number of Shocks Mean ± S.E.M. (Wistar rats; 10 mg/kg PO) | Number of Shocks Mean ± S.E.M. (Wistar rats; 30 mg/kg PO) | Non-Suppressed Response Rates Mean ± S.E.M. (rhesus monkeys; 1.8 mg/kg IV) | Suppressed Response Rates Mean ± S.E.M. (rhesus monkeys; 1.8 mg/kg IV) | Non-Suppressed Response Rates Mean ± S.E.M. (rhesus monkeys; 5.6 mg/kg IV) | Suppressed Response Rates Mean ± S.E.M. (rhesus monkeys; 5.6 mg/kg IV) |
| --- | --- | --- | --- | --- | --- | --- | --- | --- | --- | --- | --- | --- | --- | --- | --- |
| Clc1ccc(-c2nc3cccnn3c2Cn2cncn2)cc1 [Compound 32, 3-((1H-1,2,4-triazol-1-yl)methyl)-2-(4-chlorophenyl)imidazo[1,2-b]pyridazine] | 2.50 ± 0.29 Responses/Second | 0.03 ± 0.01 Responses/Second | 2.58 ± 0.44 Responses/Second | 0.24 ± 0.17 Responses/Second | 1.82 ± 0.67 Responses/Second | 1.1 ± 0.67 Responses/Second | 1.77 ± 0.64 Responses/Second | 1.19 ± 0.36 Responses/Second | 3.8 ± 0.6 | 3.8 ± 0.7 | 6.6 ± 2.3 |  |  |  |  |
| Cc1ccn(Cc2c(-c3ccc(Cl)cc3)nc3ccccn23)c(=O)n1 [Compound 105, 1-((2-(4-chlorophenyl)imidazo[1,2-a]pyridin-3-yl)methyl)-4-methylpyrimidin-2(1H)-one] | 2.68 ± 0.37 Responses/Second | 0.02 ± 0.01 Responses/Second | 2.68 ± 0.39 Responses/Second | 0.47 ± 0.44 Responses/Second | 2.78 ± 0.36 Responses/Second | 0.79 ± 0.45 Responses/Second | 1.02 ± 0.57 Responses/Second | 0.46 ± 0.32 Responses/Second | 5.1 ± 0.6 | 5.8 ± 0.8 | 8.2 ± 1.8 |  |  |  |  |
| Cn1ncnc1Cc1c(-c2ccc(F)cc2)nc2ccc(F)cn12 [Compound 200, 6-fluoro-2-(4-fluorophenyl)-3-((1-methyl-1H-1,2,4-triazol-5-yl)methyl)imidazo[1,2-a]pyridine] |  |  | 3.2 Responses/Second | 0.02 Responses/Second | 2.9 Responses/Second | 0.02 Responses/Second | 3.1 Responses/Second | 1.2* Responses/Second | 8.4 ± 2.1 | 8.9 ± 2.3 | 9.5 ± 2.1 | 2.4 Responses/Second | 1.4* Responses/Second | 3.3 Responses/Second | 1.9* Responses/Second |
| Clc1ccc(-c2nc3ccccn3c2Cc2ncn[nH]2)cc1 [Compound 211, 3-((1H-1,2,4-triazol-5-yl)methyl)-2-(4-chlorophenyl)imidazo[1,2-a]pyridine] |  |  |  |  |  |  |  |  | 3.9 ± 0.5 | 5.3 ± 0.8 | 5.0 ± 1.1 |  |  |  |  |

From patent US8497278B2, “Imidazo[1,2-a]pyridine compounds” (priority 2008, dated 2013)
